Patent publication US20250108038A1 (priority 2023, published 2025)
“And” between values parts separate entries of the source, which are not always exact repeats. Equal entries are not always repeated. Structures can show the parent of a compound that is named as a salt.

Test system: Long Evans rats
Experiment: Behavioral satiety sequence (BSS)
Assay type: in vivo, Long Evans rat
Description: The Behavioural Satiety Sequence (BSS) is a technique used to evaluate physiological satiety. It is based on the expression of a sequence of behaviors including eating, grooming, locomotor activity, followed by resting, which are typically observed in rodents post-ingestion (Halford et al, 1998, Pharmacology Biochemistry and Behaviour. 61(2): 159-168). The BSS is a widely used model for determining the effects of novel pharmaceuticals on food intake and measures of satiety in rodents (Oliveira et al, 2011, Revista de Nutrição. 24(4) 619-628), and to discriminate the cause of reduced food intake following pharmacological manipulation. For example, treatments that may reduce food intake by non-specific mechanisms, such as immobility, malaise, and taste adulteration, will disrupt this sequence (Halford et al, 1998, Pharmacology Biochemistry and Behaviour. 61(2): 159-168).
Specifically, 12 male Long-Evans rats were food-deprived for 22 h with a 2 h feeding period each day. Rats were trained to consume daily food during the 2 h period over 25 days. The testing phase was initiated once the rats consistently consumed 16-18 g of food per day with ≤10% variance in amount of feed consumed. Feeding took place in designated individual boxes in a quiet room separate from the housing room. Continuous remote monitoring via video camera during feeding was used to assess the BSS. Food consumption was measured by weighing the total available food before and after the 2 h feeding window, correcting for spillage. Lorcaserin (1 mg/kg) was included as a reference control (Higgins et al, 2011, Neuropsychopharmacology. 37(5): 1177-1191). Subjects were tested using a repeated-measures, Latin square design with 2-3 days wash-out between treatment cycles.
On scheduled test days, animals were monitored remotely via video camera during the feeding access period. The occurrence of four mutually exclusive behaviors (eating/drinking, grooming, active, rest) were individually scored. Over the 2 h feeding period, behaviors were assessed every 30 seconds. Scores were compiled into 23 5 min timebins (timebin 24 was removed due to early removal of animals) and the frequency of each behavior within each timebin was calculated to determine a temporal frequency of each measure (Rodgers et al, 2010, Pharmacology Biochemistry and Behaviour. 97: 3-14). Percentage time was plotted for each behavioral sequence in each timebin to compare between treatment groups (Higgins et al, 2011, Neuropsychopharmacology. 37(5): 1177-1191).

[1] = Lorcaserin 1 mg/kg, AVG of animals LT-1 to LT-12, 0-0.5 hours
[2] = Lorcaserin 1 mg/kg, raw data per animal LT-1 to LT-12, 0-0.5 hours, hydrochloride
[3] = lorcaserin 1 mg/kg, AVG of animals LT-1 to LT-12
[4] = lorcaserin 1 mg/kg, raw score per animal (LT-1 to LT-12), hydrochloride

SMILES: C[C@H]1CNCCc2ccc(Cl)cc21 [lorcaserin, Lorcaserin hydrochloride, reference compound]
- BSS scoring R (resting), Time Bin 12 (55-60 TOTAL) (Lorcaserin 1 mg/kg s.c., raw score per animal, hydrochloride): 0 (10×) and 1 (2×)
- BSS scoring A (active), Time Bin 1 (0-5 TOTAL), AVG [1]: 0.17
- BSS scoring A (active), Time Bin 2 (5-10 TOTAL), AVG [1]: 0.08
- BSS scoring A (active), Time Bin 3 (10-15 TOTAL), AVG [1]: 0.09
- BSS scoring A (active), Time Bin 4 (15-20 TOTAL), AVG [1]: 0.10
- BSS scoring A (active), Time Bin 5 (20-25 TOTAL), AVG [1]: 0.18
- BSS scoring A (active), Time Bin 6 (25-30 TOTAL), AVG [1]: 0.15
- BSS scoring E (eating/drinking), Time Bin 1 (0-5 TOTAL), AVG [1]: 0.75
- BSS scoring E (eating/drinking), Time Bin 2 (5-10 TOTAL), AVG [1]: 0.83
- BSS scoring E (eating/drinking), Time Bin 3 (10-15 TOTAL), AVG [1]: 0.78
- BSS scoring E (eating/drinking), Time Bin 4 (15-20 TOTAL), AVG [1]: 0.78
- BSS scoring E (eating/drinking), Time Bin 5 (20-25 TOTAL), AVG [1]: 0.71
- BSS scoring E (eating/drinking), Time Bin 6 (25-30 TOTAL), AVG [1]: 0.75
- BSS scoring G (grooming), Time Bin 1 (0-5 TOTAL), AVG [1]: 0.08
- BSS scoring G (grooming), Time Bin 2 (5-10 TOTAL), AVG [1]: 0.09
- BSS scoring G (grooming), Time Bin 3 (10-15 TOTAL), AVG [1]: 0.10
- BSS scoring G (grooming), Time Bin 4 (15-20 TOTAL), AVG [1]: 0.09
- BSS scoring G (grooming), Time Bin 5 (20-25 TOTAL), AVG [1]: 0.12
- BSS scoring G (grooming), Time Bin 6 (25-30 TOTAL), AVG [1]: 0.05
- BSS scoring R (resting), Time Bin 1 (0-5 TOTAL), AVG [1]: 0.01
- BSS scoring R (resting), Time Bin 2 (5-10 TOTAL), AVG [1]: 0.01
- BSS scoring R (resting), Time Bin 3 (10-15 TOTAL), AVG [1]: 0.02
- BSS scoring R (resting), Time Bin 4 (15-20 TOTAL), AVG [1]: 0.03
- BSS scoring R (resting), Time Bin 5 (20-25 TOTAL), AVG [1]: 0.00
- BSS scoring R (resting), Time Bin 6 (25-30 TOTAL), AVG [1]: 0.05
- BSS scoring R (resting), Time Bin 5 (20-25 TOTAL) (Lorcaserin 1 mg/kg, raw data per animal LT-1 to LT-12, 0-0.5 hours): 0
- BSS scoring A (active), Time Bin 1 (0-5 TOTAL) [2]: 3 (3×) and 2 (4×) and 1 (3×) and 0 (2×)
- BSS scoring A (active), Time Bin 2 (5-10 TOTAL) [2]: 1 (3×) and 0 (6×) and 2 (3×)
- BSS scoring A (active), Time Bin 3 (10-15 TOTAL) [2]: 1 (7×) and 0 (3×) and 2 (2×)
- BSS scoring A (active), Time Bin 4 (15-20 TOTAL) [2]: 3 (3×) and 1 (3×) and 0 (6×)
- BSS scoring A (active), Time Bin 5 (20-25 TOTAL) [2]: 0 (3×) and 1 (3×) and 3 (2×) and 4 (2×) and 2 (2×)
- BSS scoring A (active), Time Bin 6 (25-30 TOTAL) [2]: 2 (2×) and 0 (4×) and 1 (4×) and 7 and 3
- BSS scoring E (eating/drinking), Time Bin 1 (0-5 TOTAL) [2]: 7 (4×) and 6 (3×) and 8 (2×) and 10 and 9 (2×)
- BSS scoring E (eating/drinking), Time Bin 2 (5-10 TOTAL) [2]: 6 (2×) and 9 (4×) and 8 (3×) and 7 and 10 (2×)
- BSS scoring E (eating/drinking), Time Bin 3 (10-15 TOTAL) [2]: 8 (6×) and 5 and 7 and 6 and 10 and 9 (2×)
- BSS scoring E (eating/drinking), Time Bin 4 (15-20 TOTAL) [2]: 7 (3×) and 8 and 6 (3×) and 10 and 9 (4×)
- BSS scoring E (eating/drinking), Time Bin 5 (20-25 TOTAL) [2]: 9 (2×) and 8 (4×) and 7 (3×) and 4 (2×) and 6
- BSS scoring E (eating/drinking), Time Bin 6 (25-30 TOTAL) [2]: 7 (2×) and 9 (4×) and 10 and 8 (3×) and 1 and 5
- BSS scoring G (grooming), Time Bin 1 (0-5 TOTAL) [2]: 0 (4×) and 2 and 1 (7×)
- BSS scoring G (grooming), Time Bin 2 (5-10 TOTAL) [2]: 3 and 1 (4×) and 0 (5×) and 2 (2×)
- BSS scoring G (grooming), Time Bin 3 (10-15 TOTAL) [2]: 1 (4×) and 2 (4×) and 0 (4×)
- BSS scoring G (grooming), Time Bin 4 (15-20 TOTAL) [2]: 0 (4×) and 1 (5×) and 2 (3×)
- BSS scoring G (grooming), Time Bin 5 (20-25 TOTAL) [2]: 1 (3×) and 2 (4×) and 0 (4×) and 3
- BSS scoring G (grooming), Time Bin 6 (25-30 TOTAL) [2]: 0 (7×) and 1 (4×) and 2
- BSS scoring R (resting), Time Bin 1 (0-5 TOTAL) [2]: 0 (11×) and 1
- BSS scoring R (resting), Time Bin 2 (5-10 TOTAL) [2]: 0 (11×) and 1
- BSS scoring R (resting), Time Bin 3 (10-15 TOTAL) [2]: 0 (10×) and 1 (2×)
- BSS scoring R (resting), Time Bin 4 (15-20 TOTAL) [2]: 0 (8×) and 1 (4×)
- BSS scoring R (resting), Time Bin 6 (25-30 TOTAL) [2]: 1 (3×) and 0 (8×) and 3
- BSS scoring A (active), Time Bin 19 (90-95 TOTAL), AVG [3]: 0.10
- BSS scoring A (active), Time Bin 20 (95-100 TOTAL), AVG [3]: 0.08
- BSS scoring A (active), Time Bin 21 (100-105 TOTAL), AVG [3]: 0.06
- BSS scoring A (active), Time Bin 22 (105-110 TOTAL), AVG [3]: 0.02
- BSS scoring A (active), Time Bin 23 (110-115 TOTAL), AVG [3]: 0.06
- BSS scoring A (active), Time Bin 24 (115-120 TOTAL), AVG [3]: 0.10
- BSS scoring E (eating/drinking), Time Bin 19 (90-95 TOTAL), AVG [3]: 0.77
- BSS scoring E (eating/drinking), Time Bin 20 (95-100 TOTAL), AVG [3]: 0.75
- BSS scoring E (eating/drinking), Time Bin 21 (100-105 TOTAL), AVG [3]: 0.84
- BSS scoring E (eating/drinking), Time Bin 22 (105-110 TOTAL), AVG [3]: 0.84
- BSS scoring E (eating/drinking), Time Bin 23 (110-115 TOTAL), AVG [3]: 0.75
- BSS scoring E (eating/drinking), Time Bin 24 (115-120 TOTAL), AVG [3]: 0.58
- BSS scoring G (grooming), Time Bin 19 (90-95 TOTAL), AVG [3]: 0.04
- BSS scoring G (grooming), Time Bin 20 (95-100 TOTAL), AVG [3]: 0.05
- BSS scoring G (grooming), Time Bin 21 (100-105 TOTAL), AVG [3]: 0.05
- BSS scoring G (grooming), Time Bin 22 (105-110 TOTAL), AVG [3]: 0.01
- BSS scoring G (grooming), Time Bin 23 (110-115 TOTAL), AVG [3]: 0.08
- BSS scoring G (grooming), Time Bin 24 (115-120 TOTAL), AVG [3]: 0.07
- BSS scoring R (resting), Time Bin 19 (90-95 TOTAL), AVG [3]: 0.09
- BSS scoring R (resting), Time Bin 20 (95-100 TOTAL), AVG [3]: 0.12
- BSS scoring R (resting), Time Bin 21 (100-105 TOTAL), AVG [3]: 0.05
- BSS scoring R (resting), Time Bin 22 (105-110 TOTAL), AVG [3]: 0.13
- BSS scoring R (resting), Time Bin 23 (110-115 TOTAL), AVG [3]: 0.11
- BSS scoring R (resting), Time Bin 24 (115-120 TOTAL), AVG [3]: 0.08
- BSS scoring A (active), Time Bin 19 (90-95 TOTAL) [4]: 2 (3×) and 0 (7×) and 3 (2×)
- BSS scoring A (active), Time Bin 20 (95-100 TOTAL) [4]: 0 (7×) and 1 (2×) and 4 and 2 (2×)
- BSS scoring A (active), Time Bin 21 (100-105 TOTAL) [4]: 0 (7×) and 1 (4×) and 3
- BSS scoring A (active), Time Bin 22 (105-110 TOTAL) [4]: 0 (11×) and 2
- BSS scoring A (active), Time Bin 23 (110-115 TOTAL) [4]: 0 (6×) and 1 (5×) and 2
- BSS scoring A (active), Time Bin 24 (115-120 TOTAL) [4]: 0 (8×) and 6 and 1 and 3 and 2
- BSS scoring E (eating/drinking), Time Bin 19 (90-95 TOTAL) [4]: 8 and 9 (3×) and 5 (2×) and 10 (2×) and 7 (3×) and 6
- BSS scoring E (eating/drinking), Time Bin 20 (95-100 TOTAL) [4]: 9 (5×) and 8 and 0 and 10 (2×) and 4 and 6 and 7
- BSS scoring E (eating/drinking), Time Bin 21 (100-105 TOTAL) [4]: 8 (4×) and 9 (2×) and 7 (3×) and 10 (3×)
- BSS scoring E (eating/drinking), Time Bin 22 (105-110 TOTAL) [4]: 7 and 8 (4×) and 9 (3×) and 10 (3×) and 5
- BSS scoring E (eating/drinking), Time Bin 23 (110-115 TOTAL) [4]: 6 (5×) and 8 (3×) and 9 (4×)
- BSS scoring E (eating/drinking), Time Bin 24 (115-120 TOTAL) [4]: 10 (2×) and 9 and 0 (2×) and 7 (2×) and 4 (2×) and 5 and 6 and 8
- BSS scoring G (grooming), Time Bin 19 (90-95 TOTAL) [4]: 0 (9×) and 3 and 1 (2×)
- BSS scoring G (grooming), Time Bin 20 (95-100 TOTAL) [4]: 0 (7×) and 1 (4×) and 2
- BSS scoring G (grooming), Time Bin 21 (100-105 TOTAL) [4]: 0 (7×) and 1 (4×) and 2
- BSS scoring G (grooming), Time Bin 22 (105-110 TOTAL) [4]: 0 (11×) and 1
- BSS scoring G (grooming), Time Bin 23 (110-115 TOTAL) [4]: 4 and 2 (2×) and 0 (7×) and 1 (2×)
- BSS scoring G (grooming), Time Bin 24 (115-120 TOTAL) [4]: 0 (7×) and 2 (3×) and 1 (2×)
- BSS scoring R (resting), Time Bin 19 (90-95 TOTAL) [4]: 0 (6×) and 1 (3×) and 3 (2×) and 2
- BSS scoring R (resting), Time Bin 20 (95-100 TOTAL) [4]: 1 (5×) and 0 (5×) and 7 and 2
- BSS scoring R (resting), Time Bin 21 (100-105 TOTAL) [4]: 2 and 0 (9×) and 3 and 1
- BSS scoring R (resting), Time Bin 22 (105-110 TOTAL) [4]: 3 (2×) and 2 (4×) and 0 (4×) and 1 (2×)
- BSS scoring R (resting), Time Bin 23 (110-115 TOTAL) [4]: 0 (3×) and 1 (6×) and 2 (2×) and 3
- BSS scoring R (resting), Time Bin 24 (115-120 TOTAL) [4]: 0 (7×) and 1 (2×) and 4 and 2 (2×)
